The experiment has as its system PANC-1 cells. Kind of experiment: cell viability assay in PANC-1 cells (compound alone, + 100 ng/ml TNFa, + 300 ng/ml TRAIL). The format is cell-based. The conditions noted are these: Tables 6-10.
The mark [1] stands for this setting: Homo sapiens, PANC-1, compound alone, read-out: IC50 (μM) in cell viability assay in PANC-1 cells: Compound alone.
Setting [2] is: with 100 ng/ml TNFa, read-out: IC50 (μM) in cell viability assay in PANC-1 cells: Compound + 100 ng/ml TNFa.
Where [3] appears, read: with 300 ng/ml TRAIL, read-out: IC50 (μM) in cell viability assay in PANC-1 cells: Compound + 300 ng/ml TRAIL.

Like-named read-outs stand apart in the source and are kept apart here.

With `CN[C@@H](C)C(=O)N[C@H](C(=O)N[C@@H](CCNC(=O)CC[C@H](NC(=O)[C@@H](NC(=O)[C@H](C)NC)C(C)(C)C)C(=O)N[C@@H]1CCCc2ccccc21)C(=O)N[C@@H]1CCCc2ccccc21)C(C)(C)C` [Compound 171], the IC50 runs as follows: under setting [1], above 1 µM; under setting [2], 0.044 µM; under setting [3], 0.063 µM.

Regarding `CN[C@@H](C)C(=O)N[C@@H](C)C(=O)N1C[C@@H](NC(=O)c2cccc(C(=O)N[C@H]3C[C@@H](C(=O)N[C@@H]4CCCc5ccccc54)N(C(=O)[C@@H](NC(=O)[C@H](C)NC)C(C)(C)C)C3)c2)C[C@H]1C(=O)N[C@H](C)c1ccccc1` [Compound 172], the IC50 reads like this: under setting [1], above 1 µM; under setting [2], 0.025 µM; under setting [3], 0.028 µM.

As for `CN[C@@H](C)C(=O)N[C@H](C(=O)N1C[C@@H](NC(=O)c2cccc(C(=O)N[C@H]3C[C@@H](C(=O)N[C@H](C)c4ccccc4)N(C(=O)[C@@H](NC(=O)[C@H](CO)NC)C(C)(C)C)C3)c2)C[C@H]1C(=O)N[C@@H]1CCCc2ccccc21)C(C)(C)C` [Compound 173], the IC50 by setting is: under setting [1], above 1 µM; under setting [2], 0.01 µM; under setting [3], 0.019 µM.

Turning to `CN[C@@H](C)C(=O)N[C@H](C(=O)N[C@@H](CCNC(=O)c1cccc(C(=O)N[C@H]2C[C@@H](C(=O)N[C@@H]3CCCc4ccccc43)N(C(=O)[C@@H](NC(=O)[C@H](C)NC)C(C)(C)C)C2)c1)C(=O)N[C@H](C)c1ccccc1)C(C)(C)C` [Compound 174], the IC50 was above 1 µM under setting [1], 0.0069 µM under setting [2] and 0.0107 µM under setting [3].

As for `CN[C@@H](C)C(=O)N[C@H](C(=O)N[C@@H](CCNC(=O)c1cccc(C(=O)N[C@H]2C[C@@H](C(=O)N[C@@H]3CCCc4ccccc43)N(C(=O)[C@@H](NC(=O)[C@H](C)NC)C(C)(C)C)C2)c1)C(=O)N[C@H](C)c1ccccc1)C(C)C` [Compound 175], the IC50 is, setting by setting: under setting [1], above 1 µM; under setting [2], 0.0163 µM; under setting [3], 0.0357 µM.

For `CN[C@@H](C)C(=O)N[C@H](C(=O)N[C@@H](CCNC(=O)c1cccc(C(=O)N[C@H]2C[C@@H](C(=O)N[C@@H]3CCCc4ccccc43)N(C(=O)[C@@H](NC(=O)[C@H](C)NC)C(C)(C)C)C2)c1)C(=O)N[C@H](C)C(C)C)C(C)(C)C` [Compound 176], the IC50 under setting [1] is above 1 µM, the IC50 under setting [2] was 0.0199 µM and the IC50 under setting [3] came to 0.0388 µM.

Take `CC[C@H](NC(=O)[C@H](C)NC)C(=O)N[C@@H](CCNC(=O)c1cccc(C(=O)N[C@H]2C[C@@H](C(=O)N[C@@H]3CCCc4ccccc43)N(C(=O)[C@@H](NC(=O)[C@H](C)NC)C(C)(C)C)C2)c1)C(=O)N[C@H](C)c1ccccc1` [Compound 177]: the IC50 under setting [1] was above 1 µM, the IC50 under setting [2] was 0.035 µM and the IC50 under setting [3] was 0.05 µM.

For the compound `CN[C@@H](C)C(=O)N[C@@H](C)C(=O)N[C@@H](CCNC(=O)c1cccc(C(=O)N[C@H]2C[C@@H](C(=O)N[C@@H]3CCCc4ccccc43)N(C(=O)[C@@H](NC(=O)[C@H](C)NC)C(C)(C)C)C2)c1)C(=O)N[C@H](C)c1ccccc1` [Compound 178], the IC50 is, setting by setting: under setting [1], above 1 µM; under setting [2], 0.054 µM; under setting [3], 0.089 µM.

For the compound `CN[C@@H](C)C(=O)N[C@H](C(=O)N[C@@H](CCNC(=O)c1cc(C(=O)N[C@H]2C[C@@H](C(=O)N[C@@H]3CCCc4ccccc43)N(C(=O)[C@@H](NC(=O)[C@H](C)NC)C(C)(C)C)C2)cc([N+](=O)[O-])c1)C(=O)N[C@H](C)C(C)C)C(C)C` [Compound 179], the IC50 is above 1 µM under setting [1], 0.056 µM under setting [2] and 0.048 µM under setting [3].

For `CN[C@@H](C)C(=O)N[C@H](C(=O)N[C@@H](CCNC(=O)c1cc(N)cc(C(=O)N[C@H]2C[C@@H](C(=O)N[C@@H]3CCCc4ccccc43)N(C(=O)[C@@H](NC(=O)[C@H](C)NC)C(C)(C)C)C2)c1)C(=O)N[C@H](C)C(C)C)C(C)C` [Compound 180], the IC50 is above 1 µM under setting [1], 0.124 µM under setting [2] and 0.201 µM under setting [3].

Consider `CN[C@@H](C)C(=O)N[C@H](C(=O)N[C@@H](CCNC(=O)c1cccc(C(=O)N[C@H]2C[C@@H](C(=O)N[C@@H]3CCCc4ccccc43)N(C(=O)[C@@H](NC(=O)[C@H](C)NC)C3CCCCC3)C2)c1)C(=O)N[C@H](C)C(C)C)C(C)C` [Compound 181], for which the IC50 is above 1 µM under setting [1], 0.037 µM under setting [2] and 0.072 µM under setting [3].

For `CN[C@@H](C)C(=O)N[C@H](C(=O)N[C@@H](CCNC(=O)c1cc(C(=O)N[C@H]2C[C@@H](C(=O)N[C@@H]3CCCc4ccccc43)N(C(=O)[C@@H](NC(=O)[C@H](C)NC)C(C)(C)C)C2)cc([N+](=O)[O-])c1)C(=O)N[C@@H]1CCCc2ccccc21)C(C)C` [Compound 182], the IC50 runs as follows: under setting [1], above 1 µM; under setting [2], 0.043 µM; under setting [3], 0.08 µM.

Regarding `CN[C@@H](C)C(=O)N[C@H](C(=O)N[C@@H](CCNC(=O)c1cc(N)cc(C(=O)N[C@H]2C[C@@H](C(=O)N[C@@H]3CCCc4ccccc43)N(C(=O)[C@@H](NC(=O)[C@H](C)NC)C(C)(C)C)C2)c1)C(=O)N[C@@H]1CCCc2ccccc21)C(C)C` [Compound 183], the IC50 is, setting by setting: under setting [1], above 1 µM; under setting [2], 0.044 µM; under setting [3], 0.061 µM.

For the compound `CN[C@@H](C)C(=O)N[C@@H](CCCCNC(=O)c1cccc(C(=O)N[C@H]2C[C@@H](C(=O)N[C@@H]3CCCc4ccccc43)N(C(=O)[C@@H](NC(=O)[C@H](C)NC)C(C)(C)C)C2)c1)C(=O)N1CCC[C@H]1C(=O)NC(c1ccccc1)c1ccccc1` [Compound 184], the IC50 runs as follows: under setting [1], above 1 µM; under setting [2], 0.027 µM; under setting [3], 0.076 µM.

On to `CN[C@@H](C)C(=O)N[C@H](C(=O)N[C@@H](CCNC(=O)c1ccc2cc(C(=O)N[C@H]3C[C@@H](C(=O)N[C@@H]4CCCc5ccccc54)N(C(=O)[C@@H](NC(=O)[C@H](C)NC)C(C)(C)C)C3)ccc2c1)C(=O)N[C@H](C)C(C)C)C(C)C` [Compound 185], for which the IC50 reads like this: under setting [1], above 1 µM; under setting [2], 0.008 µM; under setting [3], 0.004 µM.

Turning to `CN[C@@H](C)C(=O)N[C@@H]1CCN(C(=O)c2ccc(C(=O)N[C@H]3C[C@@H](C(=O)N[C@@H]4CCCc5ccccc54)N(C(=O)[C@@H](NC(=O)[C@H](C)NC)C(C)(C)C)C3)cc2)C1` [Compound 186], the IC50 is above 1 µM under setting [1], 0.56 µM under setting [2] and 0.55 µM under setting [3].

In the case of `CN[C@@H](C)C(=O)N[C@H]1CCN(C(=O)c2ccc(C(=O)N[C@H]3C[C@@H](C(=O)N[C@@H]4CCCc5ccccc54)N(C(=O)[C@@H](NC(=O)[C@H](C)NC)C(C)(C)C)C3)cc2)C1` [Compound 187], the IC50 under setting [1] is above 1 µM, the IC50 under setting [2] was 0.62 µM and the IC50 under setting [3] worked out at 0.6 µM.

For the compound `CN[C@@H](C)C(=O)N[C@H](C(=O)N1C[C@@H](NC(=O)c2ccc(C(=O)N3CCN(C(=O)[C@H](C)NC)CC3)cc2)C[C@H]1C(=O)N[C@@H]1CCCc2ccccc21)C(C)(C)C` [Compound 188], the IC50 is, setting by setting: under setting [1], above 1 µM; under setting [2], 0.56 µM; under setting [3], 0.55 µM.

As to `CN[C@@H](C)C(=O)Nc1nc(CC(=O)NCCCC[C@H](NC(=O)[C@H](C)NC)C(=O)N2CCC[C@H]2C(=O)N[C@@H]2CCCc3ccccc32)cs1` [Compound 189], the IC50 is above 1 µM under setting [1], above 1 µM under setting [2] and above 1 µM under setting [3].

As to `CN[C@@H](C)C(=O)Nc1nc(CC(=O)NCC[C@H](NC(=O)[C@@H](NC(=O)[C@H](C)NC)C(C)(C)C)C(=O)N[C@@H]2CCCc3ccccc32)cs1` [Compound 190], the IC50 under setting [1] was above 1 µM, the IC50 under setting [2] was above 1 µM and the IC50 under setting [3] is above 1 µM.

On to `CN[C@@H](C)C(=O)N[C@H](C(=O)N1C[C@@H](NC(=O)CCc2ccc(C(=O)N[C@H]3C[C@@H](C(=O)N[C@@H]4CCCc5ccccc54)N(C(=O)[C@@H](NC(=O)[C@H](C)NC)C(C)(C)C)C3)cc2)C[C@H]1C(=O)N[C@@H]1CCCc2ccccc21)C(C)(C)C` [Compound 191], for which the IC50 is above 1 µM under setting [1], 0.013 µM under setting [2] and 0.012 µM under setting [3].

For the compound `CNC(C)C(=O)Nc1nc(-c2ccccc2)c(C(=O)NC[C@@H](NC(=O)[C@@H]2CCCN2C(=O)[C@@H](NC(=O)[C@H](C)NC)C(C)(C)C)c2ccccc2)s1` (stereo partly drawn) [Compound 192], the IC50 is, setting by setting: under setting [1], above 1 µM; under setting [2], 0.659 µM; under setting [3], above 1 µM.

For `CN[C@@H](C)C(=O)Nc1nc(CC(=O)NC[C@@H](NC(=O)[C@@H]2CCCN2C(=O)[C@@H](NC(=O)[C@H](C)NC)C(C)(C)C)c2ccccc2)cs1` [Compound 193], the IC50 is, setting by setting: under setting [1], above 1 µM; under setting [2], above 1 µM; under setting [3], above 1 µM.

With `CN[C@@H](C)C(=O)N[C@H](C(=O)N[C@@H](CCNC(=O)c1ccc(C#Cc2ccc(C(=O)N[C@H]3C[C@@H](C(=O)N[C@@H]4CCCc5ccccc54)N(C(=O)[C@@H](NC(=O)[C@H](C)NC)C(C)(C)C)C3)cc2)cc1)C(=O)NC(C)C(C)C)C(C)C` (stereo partly drawn) [Compound 194], the IC50 under setting [1] was above 1 µM, the IC50 under setting [2] was determined as 0.057 µM and the IC50 under setting [3] worked out at 0.06 µM.

In the case of `CN[C@@H](C)C(=O)Nc1nc(CC(=O)NCCc2cn([C@H]3C[C@@H](C(=O)N[C@@H]4CCCc5ccccc54)N(C(=O)[C@@H](NC(=O)[C@H](C)NC)C(C)(C)C)C3)nn2)cs1` [Compound 195], the IC50 under setting [1] was above 1 µM, the IC50 under setting [2] is above 1 µM and the IC50 under setting [3] was above 1 µM.

With `CN[C@@H](C)C(=O)Nc1nc(-c2ccccc2)c(C(=O)NCCc2cn([C@H]3C[C@@H](C(=O)N[C@@H]4CCCc5ccccc54)N(C(=O)[C@@H](NC(=O)[C@H](C)NC)C(C)(C)C)C3)nn2)s1` [Compound 196], the IC50 by setting is: under setting [1], above 1 µM; under setting [2], 0.577 µM; under setting [3], 0.622 µM.

As for `CN[C@@H](C)C(=O)NC(C(=O)N[C@@H](CCNC(=O)CCc1cn([C@H]2C[C@@H](C(=O)N[C@@H]3CCCc4ccccc43)N(C(=O)[C@@H](NC(=O)[C@H](C)NC)C(C)(C)C)C2)nn1)C(=O)N[C@H](C)c1ccccc1)C(C)(C)C` (stereo partly drawn) [Compound 197], the IC50 under setting [1] was above 1 µM, the IC50 under setting [2] is 0.128 µM and the IC50 under setting [3] was determined as 0.18 µM.

The record behind these values is patent publication US20130344026A1, “Dimeric Smac Mimetics” (priority 2009, published 2013).
